Test results from patent publication US7138361B2, “Herbicidal heterocycles” (E. I. du Pont de Nemours and Company, priority 2000, dated 2006).

Assays:
Assay type in all cases: in vivo
[1] = test system: Surinam grass (Brachiaria decumbens); assay: Test B postemergence; conditions: 13 to 15 days
Summary of the method: (§1)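 Post-treatment, species sat 13–15 days under greenhouse conditions before visual scoring against controls, 0 (no effect) through 100 (complete control). Application preemergence to sown seeds or postemergence at 1- to 4-leaf stage, using a non-phytotoxic solvent/surfactant formulation.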

[2] = test system: barnyardgrass (Echinochloa crus-galli); assay: Test B postemergence; conditions: 13 to 15 days
Summary of the method: as §1

[3] = test system: blackgrass (Alopecurus myosuroides); assay: Test B postemergence; conditions: 13 to 15 days
Summary of the method: as §1

[4] = test system: cocklebur (Xanthium strumarium); assay: Test B postemergence; conditions: 13 to 15 days
Summary of the method: as §1

corn (Zea mays) [5] = assay: Test B postemergence; conditions: 13 to 15 days
Summary of the method: as §1

[6] = test system: crabgrass (Digitaria sanguinalis); assay: Test B postemergence; conditions: 13 to 15 days
Summary of the method: as §1

[7] = test system: giant foxtail (Setaria faberii); assay: Test B postemergence; conditions: 13 to 15 days
Summary of the method: as §1

[8] = test system: lambsquarters (Chenopodium album); assay: Test B postemergence; conditions: 13 to 15 days
Summary of the method: as §1

[9] = test system: morning glory (Ipomoea hederacea); assay: Test B postemergence; conditions: 13 to 15 days
Summary of the method: as §1

[10] = test system: pigweed (Amaranthus retroflexus); assay: Test B postemergence; conditions: 13 to 15 days
Summary of the method: as §1

[11] = test system: velvetleaf (Abutilon theophrasti); assay: Test B postemergence; conditions: 13 to 15 days
Summary of the method: as §1

[12] = test system: wheat (Triticum aestivum); assay: Test B postemergence; conditions: 13 to 15 days
Summary of the method: as §1

wild oat (Avena fatua) = assay: Test B postemergence; conditions: 13 to 15 days
Summary of the method: as §1

[13] = test system: Surinam grass (Brachiaria decumbens); assay: Test B preemergence
Summary of the method: as §1

[14] = test system: barnyardgrass (Echinochloa crus-galli); assay: Test B preemergence
Summary of the method: as §1

[15] = test system: cocklebur (Xanthium strumarium); assay: Test B preemergence
Summary of the method: as §1

corn (Zea mays) [16] = assay: Test B preemergence
Summary of the method: as §1

[17] = test system: crabgrass (Digitaria sanguinalis); assay: Test B preemergence
Summary of the method: as §1

[18] = test system: giant foxtail (Setaria faberii); assay: Test B preemergence
Summary of the method: as §1

[19] = test system: lambsquarters (Chenopodium album); assay: Test B preemergence
Summary of the method: as §1

[20] = test system: morning glory (Ipomoea hederacea); assay: Test B preemergence
Summary of the method: as §1

[21] = test system: pigweed (Amaranthus retroflexus); assay: Test B preemergence
Summary of the method: as §1

rice (Oryza saliva) [22] = assay: Test B preemergence
Summary of the method: as §1

[23] = test system: velvetleaf (Abutilon theophrasti); assay: Test B preemergence
Summary of the method: as §1

[24] = test system: barnyardgrass (Echinochloa crus-galli); assay: Test C flooded paddy test; conditions: for Barnyardgrass plant response rating: Flooded Paddy, scale 0 to 100, 0 no effect, 100 complete control; for Plant response rating, Barnyardgrass: flooded paddy test, scale 0 to 100 (0 no effect, 100 complete control)
Summary of the method: (§2)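 Rice and three paddy weeds were grown to the 2-leaf stage under flooded conditions, then treated and kept in a greenhouse for 12–14 days. Response was rated visually against untreated controls on a 0–100 scale, where 100 is complete control.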

[25] = test system: duck salad (Heteranthera limosa); assay: Test C flooded paddy test; conditions: for Ducksalad plant response rating: Flooded Paddy, scale 0 to 100, 0 no effect, 100 complete control; for Plant response rating, Ducksalad: flooded paddy test, scale 0 to 100 (0 no effect, 100 complete control)
Summary of the method: as §2

rice (Oryza saliva) [26] = assay: Test C flooded paddy test; conditions: for Rice plant response rating: Flooded Paddy, scale 0 to 100, 0 no effect, 100 complete control; for Plant response rating, Rice: flooded paddy test, scale 0 to 100 (0 no effect, 100 complete control)
Summary of the method: as §2

[27] = test system: smallflower flatsedge (Cyperus difformis); assay: Test C flooded paddy test; conditions: for Flatsedge plant response rating: Flooded Paddy, scale 0 to 100, 0 no effect, 100 complete control; for Plant response rating, Flatsedge: flooded paddy test, scale 0 to 100 (0 no effect, 100 complete control)
Summary of the method: as §2

[28] = Rate 125 g/ha, scale 0 (no effect) to 100 (complete control)
[29] = Rate 500 g/ha, scale 0 to 100, 0 is no effect, 100 is complete control
[30] = Preemergence, Rate 500 g/ha, scale 0 to 100, 0 no effect, 100 complete control
[31] = preemergence, Rate 125 g/ha, scale of 0 to 100 where 0 is no effect and 100 is complete control, 13 to 15 days

`CC(C)c1ccn(C2OCN(c3cccc(OC(F)(F)F)c3)C2=O)n1` (stereo not shown) [Compound 65] was tested, and the “Plant response rating, Surinam grass” value [1, 28] was 20, the “Plant response rating, Surinam grass” value [1, 29] was 40 and the “Plant response rating, Barnyardgrass” value [2, 28] was 0. The “Plant response rating, Barnyardgrass” value [2, 29] was 100, the “Plant response rating, Blackgrass” value [3, 28] was 0 and the “Plant response rating, Blackgrass” value [3, 29] was 0. For the same compound, the “Plant response rating, Cocklebur” value [4, 28] was 20, the “Plant response rating, Cocklebur” value [4, 29] was 30 and the “Plant response rating, Corn” value (corn (Zea mays) [5]; [28]) was 0. For the same compound, the “Plant response rating, Corn” value (corn (Zea mays) [5]; [29]) was 0, the “Plant response rating, Crabgrass” value [6, 28] was 0 and the “Plant response rating, Crabgrass” value [6, 29] was 100. The “Plant response rating, Foxtail, Giant” value [7, 28] was 0, the “Plant response rating, Foxtail, Giant” value [7, 29] was 0 and the “Plant response rating, Lambsquarters” value [8, 28] was 60. For the same compound, the “Plant response rating, Lambsquarters” value [8, 29] was 70, the “Plant response rating, Morningglory” value [9, 28] was 0 and the “Plant response rating, Morningglory” value [9, 29] was 0. The “Plant response rating, Pigweed” value [10, 28] was 0, the “Plant response rating, Pigweed” value [10, 29] was 0 and the “Plant response rating, Velvetleaf” value [11, 28] was 0. For the same compound, the “Plant response rating, Velvetleaf” value [11, 29] was 0, the “Plant response rating, Wheat” value [12, 28] was 0 and the “Plant response rating, Wheat” value [12, 29] was 0. The “Plant response rating, Wild Oat” value (wild oat (Avena fatua); [28]) was 0, the “Plant response rating, Wild Oat” value (wild oat (Avena fatua); [29]) was 0 and the “Plant response rating, Surinam grass” value [13, 30] was 20. For the same compound, the “Plant response rating, Surinam grass” value [13, 31] was 0, the “Plant response rating, Barnyardgrass” value [14, 30] was 100 and the “Plant response rating, Barnyardgrass” value [14, 31] was 90. The “Plant response rating, Cocklebur” value [15, 30] was 20, the “Plant response rating, Cocklebur” value [15, 31] was 0 and the “Plant response rating, Corn” value (corn (Zea mays) [16]; [30]) was 0. The “Plant response rating, Corn” value (corn (Zea mays) [16]; [31]) was 0, the “Plant response rating, Crabgrass” value [17, 30] was 70 and the “Plant response rating, Crabgrass” value [17, 31] was 20. For the same compound, the “Plant response rating, Foxtail, Giant” value [18, 30] was 70, the “Plant response rating, Foxtail, Giant” value [18, 31] was 20 and the “Plant response rating, Lambsquarters” value [19, 30] was 100. For the same compound, the “Plant response rating, Lambsquarters” value [19, 31] was 100, the “Plant response rating, Morningglory” value [20, 30] was 0 and the “Plant response rating, Morningglory” value [20, 31] was 0. The “Plant response rating, Pigweed” value [21, 30] was 100, the “Plant response rating, Pigweed” value [21, 31] was 100 and the “Plant response rating, Rice” value (rice (Oryza saliva) [22]; [30]) was 20. For the same compound, the “Plant response rating, Rice” value (rice (Oryza saliva) [22]; [31]) was 0, the “Plant response rating, Velvetleaf” value [23, 30] was 20 and the “Plant response rating, Velvetleaf” value [23, 31] was 0. For the same compound, the “Barnyardgrass plant response rating” value ([24]; Rate 250 g/ha) was 100, the “Barnyardgrass plant response rating” value ([24]; Rate 500 g/ha) was 100 and the “Plant response rating, Barnyardgrass” value ([24]; Rate 62 g/ha) was 40. The “Plant response rating, Barnyardgrass” value ([24]; Rate 125 g/ha) was 80, the “Ducksalad plant response rating” value ([25]; Rate 250 g/ha) was 30 and the “Ducksalad plant response rating” value ([25]; Rate 500 g/ha) was 90. The “Plant response rating, Ducksalad” value ([25]; Rate 62 g/ha) was 0, the “Plant response rating, Ducksalad” value ([25]; Rate 125 g/ha) was 0 and the “Rice plant response rating” value (rice (Oryza saliva) [26]; Rate 250 g/ha) was 90. The “Rice plant response rating” value (rice (Oryza saliva) [26]; Rate 500 g/ha) was 90, the “Plant response rating, Rice” value (rice (Oryza saliva) [26]; Rate 62 g/ha) was 0 and the “Plant response rating, Rice” value (rice (Oryza saliva) [26]; Rate 125 g/ha) was 40. The “Flatsedge plant response rating” value ([27]; Rate 250 g/ha) was 100, the “Flatsedge plant response rating” value ([27]; Rate 500 g/ha) was 100 and the “Plant response rating, Flatsedge” value ([27]; Rate 62 g/ha) was 0. For the same compound, the “Plant response rating, Flatsedge” value ([27]; Rate 125 g/ha) was 100.
